In paper PMC10694292, “Increased sinusoidal export of drug glucuronides is a compensative mechanism in liver cirrhosis of mice” (Frontiers in Pharmacology, 2023):
“And” between values parts separate entries of the source, which are not always exact repeats. Identical values can stand only once. Like-named read-outs stand apart in the source and are kept apart here.

Columns and labels:
[1] = Drug cocktail i.v. in mice: 2 h bile, fraction of dose excreted
[2] = humans, cited from earlier work
[3] = Drug cocktail i.v. in mice: 24 h urine, fraction of dose excreted; settings: mice, after drug cocktail administration
[4] = cited from earlier work
[5] = human, cited from earlier work
[6] = human, cited from earlier work; remark: listed apart in the source
[7] = cited from earlier work; for Fraction unbound: mouse
[8] = rat, cited from earlier work
[9] = Drug cocktail i.v. in CCl4-cirrhotic and control mice: plasma concentrations and AUC; settings: accompanying increased glucuronides
[10] = cited from earlier work; remark: listed apart in the source
[11] = cited from earlier work; remark: listed apart in the source
[12] = mouse, in vivo; for Fraction of dose in urine (24 h), cirrhotic vs control mice: iv
[13] = cited from earlier work; remark: listed apart in the source
OATP1B1 = tested on: OATP1B1; set-up: method as in Nakai et al., 2001; settings: human, experimental; ref Nakai et al., 2001; cited from earlier work
[14] = DrugBank, predicted AlogPS, ref Wishart et al., 2017
[15] = DrugBank, predicted ChemAxon, ref Wishart et al., 2017
[16] = optimized (mouse), ref Schenk et al., 2017
[17] = optimized (talinolol: possibly optimized), ref Thiel et al., 2015
[18] = DrugBank, ref Wishart et al., 2017

CC(C)(C)NCC(O)COc1ccc(NC(=O)NC2CCCCC2)cc1 (centres unmarked) [Talinolol, talinolol]
Amount in bile, cirrhotic vs control mice ([1]; 2 h bile): significantly increased | Mean fraction of dose excreted to bile ([1]; mice, 2 h after drug administration): 0.5% and < 1% | Median fraction of dose found in bile ([2]; after IV administration, ref Terhaag et al., 1989): 9.3% | Dose recovered unchanged from urine ([2]; ref Trausch et al., 1995): about 60% | Mean fraction of dose excreted to urine [3]: 4% and < 5% | Lipophilicity [4, 14]: 2.91 | Lipophilicity [4, 15]: 2.8 | octanol-water partition coefficient ([4]; at pH=7.5, ref Gramatté et al., 1996): 12 | Lipophilicity [4, 16]: 2.3 | Lipophilicity ([4]; ref Gramatté et al., 1996): 1.08 | Solubility ([4]; ref Gramatté et al., 1996): 3400 µM | pKa (Base) ([4]; ref Matthaei et al., 2016): 9.3 | logP from the DrugBank database as quoted in text ([4]; rounded values, ref DrugBank): 2.9 | Fraction unbound ([5]; possibly optimized, ref Tubic et al., 2006): 0.45 | Fraction unbound ([6]; measured, ref Obach et al., 2008): 0.39 | Fraction unbound [7, 17]: 0.65

Cc1ncc2n1-c1ccc(Cl)cc1C(c1ccccc1F)=NC2 [Midazolam, midazolam]
Fraction unbound ([8]; ref Poulin and Theil, 2002): 0.027 | Mean fraction of dose excreted to urine [3]: below 1% | Measured plasma concentrations of parent compound in cirrhotic mice [9]: decreased | Solubility ([4]; Ref pH: 6.5, ref Heikkinen et al., 2012): 50 µg/mL | Lipophilicity ([4]; measurement, ref Poulin and Theil, 2002): 2.95 | pKa ([4]; midazolam: experimental, ref Poulin and Theil, 2002): 5.82 | Lipophilicity [4, 16]: 3.33 | Lipophilicity ([4]; optimized, ref Britz et al., 2019): 3.13 | pKa ([4]; prediction, ref Nguyen et al., 2016): 6.04 | Lipophilicity ([4]; prediction, ref Wishart et al., 2017): 3.89 | pKa ([4]; ref Schenk et al., 2017): 6.14 | pKa (Base) ([4]; ref Wishart et al., 2017): 6.57 | Fraction unbound [6, 18]: 0.03 | Fraction unbound ([10]; measurement, mouse, ref Varkhede et al., 2018): 0.08 | Fraction unbound ([10]; species not given, ref Maurer et al., 2005, Schenk et al., 2017): 0.046

Cn1c(=O)c2c(ncn2C)n(C)c1=O [Caffeine, caffeine]
Fraction excreted unchanged to urine ([2]; ref Nehlig, 2018): 0.5-2% | Share of systemic clearance due to Cyp1a2 ([11]; C57BL/6N mice, ref Buters et al., 1996): 88% | Fraction excreted unchanged to urine ([11]; mice, ref Bonati et al., 1985): about 5% | Mean fraction of dose excreted to urine [12]: 1% | Fraction unbound [7]: 0.70

CC[C@H](C)C(=O)O[C@H]1C[C@H](O)C=C2C=C[C@H](C)[C@H](CC[C@@H](O)C[C@@H](O)CC(=O)O)[C@H]21 [Pravastatin, pravastatin]
Dose found in bile ([13]; rats, ref Fukuda et al., 2008): about 60% | Fraction unbound ([8]; ref Fukuda et al., 2008): 0.672 | Dose recovered unchanged from urine ([2]; ref Everett et al., 1991): about 41% | Solubility [4, 18]: 10000 µg/mL | Lipophilicity ([4]; MSDS, ref Wishart et al., 2017): 0.59 | Lipophilicity ([4]; experimental pH=5, ref Serajuddin et al., 1991): 1.6 | Lipophilicity ([4]; experimental pH=7, ref Serajuddin et al., 1991): -0.23 | Lipophilicity ([4]; human, optimized, ref Lippert et al., 2012): 0.82 | pKa (Acid) ([4]; ref Wishart et al., 2017, Puttegowda et al., 2016): 4.2 | Mean fraction of dose excreted to urine [12]: Less than 1% | Fraction of dose in urine (24 h), cirrhotic vs control mice [12]: increased significantly | Km (OATP1B1): 11.5 µM | Vmax ([7]; Oatp1b2, optimized for mice with measured human Km, ref Thiel et al., 2015): 2.5 µmol/L/min | Fraction unbound [7, 17]: 0.73

Cc1cccc(Nc2ccncc2S(=O)(=O)NC(=O)NC(C)C)c1 [Torsemide, torsemide]
Dose found in bile ([13]; rat, after 8h cannulation, ref Lee et al., 2005): about 2% | Tissue-to-plasma ratio, liver ([13]; ref Lee 2005): 0.336 | Tissue-to-plasma ratio, muscle ([13]; ref Lee 2005): 0.069 | Fraction unbound ([8]; experimental, ref Lee et al., 2005): 0.061 | Fraction unbound ([8]; experimental, ref Lee et al., 2005, listed as torsemide): 0.06 | Recovered from urine ([2]; after a single oral dose, ref Knauf and Mutschler, 1998, FDA, 2017): about 20% | Share excreted to urine ([2]; ref FDA, 2017): about 20% | Share of drug clearance by hepatic metabolism ([2]; ref FDA, 2017): about 80% | Lipophilicity ([4]; DrugBank, experimental, ref Wishart et al., 2017): 3.356 | Lipophilicity [4, 14]: 1.76 | Solubility [4, 14]: 55.96 µg/mL | Lipophilicity [4, 15]: 1.86 | Lipophilicity ([4]; mouse, optimized, ref Thiel et al., 2015): 2.023 | Lipophilicity [4, 16]: 2.3 | pKa ([4]; ref FDA, 2017, Wishart et al.): 7.1 | Lipophilicity ([4]; ref Knauf and Mutschler, 1998): 0.57 | pKa ([4]; ref Knauf and Mutschler, 1998): 7 | Fraction unbound ([5]; optimized, ref Krauss et al., 2017): 0.00125 | Mean fraction of dose excreted to urine [12]: 4% | Fraction of dose in urine (24 h), cirrhotic vs control mice [12]: increased significantly | Fraction unbound ([6]; experimental, ref Knauf and Mutschler, 1998, Wishart et al., 2017): < 0.01
